Measured values as given in ChEMBL document CHEMBL4411303, “Synthesis of tetrazole derivatives bearing pyrrolidine scaffold and evaluation of their antifungal activity against Candida albicans” (Eur J Med Chem, 2019).
pIC50: −log10 of the molar value. Values after ≈ are worked out from the molar mass of the structure shown. Active and inactive are the calls of the source. The calls are words filed in the database; no cut-off is given here.

Experiments:
[1] = system: Candida albicans; assay: Antifungal activity against Candida albicans ATCC 90028 assessed as reduction in cell growth after 48 to 72 hrs by M27-A3 protocol based method; format: functional
[2] = system: Candida albicans; assay: Antifungal activity against Candida albicans ATCC 90028 assessed as planktonic growth inhibition at 12 uM after 48 hrs by M27-A3 protocol based method relative to control; format: functional; conditions: ATCC 90028, 48 h, read-out: GI
[3] = system: Candida albicans; assay: Antifungal activity against Candida albicans ATCC 90028 assessed as planktonic growth inhibition at 47.9 uM after 48 hrs by M27-A3 protocol based method relative to control; format: functional; conditions: ATCC 90028, 48 h, read-out: GI
[4] = system: Candida albicans; assay: Induction of Candida albicans ATCC 90028 internalization in mouse RAW264.7 cells assessed as reduction in fungus-induced cell damage by measuring live and early apoptotic cells at 47.9 uM after 2 hrs acridine orange/ethidium bromide staining based confocal scanning microscopic analysis; format: functional, organism-based
[5] = system: Candida albicans; assay: Antifungal activity against Candida albicans ATCC 90028 assessed as reduction in cell growth after 48 to 72 hrs in presence of ergosterol by M27-A3 protocol based method; format: functional
[6] = system: Candida albicans; assay: Antifungal activity against Candida albicans ATCC 90028 assessed as planktonic growth inhibition at 0.09 uM after 48 hrs by M27-A3 protocol based method relative to control; format: functional; conditions: ATCC 90028, 48 h, read-out: GI
[7] = Toxicity in Galleria mellonella larvae assessed as survival rate at 47.9 uM measured after 48 hrs (reference value: 100%)
[8] = Toxicity in Galleria mellonella larvae assessed as survival rate at 47.9 uM measured after 18 hrs (reference value: 100%)
[9] = Toxicity in Galleria mellonella larvae assessed as cocoon formation at 47.9 uM measured after 18 hrs (reference value: 60 +/- 20%)
[10] = Toxicity in Galleria mellonella larvae assessed as movement melanization at 47.9 uM measured after 128 hrs (reference value: 0%)
[11] = system: Candida albicans; assay: Antifungal activity against Candida albicans ATCC 90028 assessed as planktonic growth inhibition at 1.5 uM after 48 hrs by M27-A3 protocol based method relative to control; format: functional; conditions: ATCC 90028, 48 h, read-out: GI
[12] = system: Candida albicans; assay: Antifungal activity against Candida albicans ATCC 90028 assessed as planktonic growth inhibition at 23.9 uM after 48 hrs by M27-A3 protocol based method relative to control; format: functional; conditions: ATCC 90028, 48 h, read-out: GI
[13] = system: Candida albicans; assay: Antifungal activity against Candida albicans ATCC 90028 assessed as planktonic growth inhibition at 0.2 uM after 48 hrs by M27-A3 protocol based method relative to control; format: functional; conditions: ATCC 90028, 48 h, read-out: GI
[14] = system: Candida albicans; assay: Inhibition of Candida albicans ATCC 90028 cell adhesion to human TR146 cells at reduction in cell adherence at 47.9 uM relative to control; format: functional; conditions: ATCC 90028, TR146
[15] = system: Candida albicans; assay: Fungicidal activity against Candida albicans ATCC 90028 assessed as log reduction in fungal load incubated for 48 hrs followed by replating on sabouraud dextrose agar plate and measured after 48 hrs; format: functional
[16] = Toxicity in Galleria mellonella larvae assessed as cocoon formation at 47.9 uM measured after 48 hrs (reference value: 100 +/- 0%)
[17] = system: Candida albicans; assay: Antifungal activity against Candida albicans ATCC 90028 assessed as planktonic growth inhibition at 3 uM after 48 hrs by M27-A3 protocol based method relative to control; format: functional; conditions: ATCC 90028, 48 h, read-out: GI
[18] = system: Candida albicans; assay: Antibiofilm activity against Candida albicans ATCC 90028 assessed as inhibition of biofilm formation […] after 24 hrs by XTT assay relative to control; format: functional, organism-based; conditions: ATCC 90028, 24 h
[19] = system: Candida albicans; assay: Antifungal activity against Candida albicans ATCC 90028 assessed as planktonic growth inhibition at 0.7 uM after 48 hrs by M27-A3 protocol based method relative to control; format: functional; conditions: ATCC 90028, 48 h, read-out: GI
[20] = Selectivity index, ratio of CC50 for African green monkey Vero cells to IC50 for Candida albicans ATCC 90028; format: toxicity; conditions: read-out: Ratio CC50/IC50
[21] = Toxicity in Galleria mellonella larvae assessed as cocoon formation at 47.9 uM measured after 48 hrs (reference value: 85 +/- 5%)
[22] = Toxicity in Galleria mellonella larvae assessed as movement melanization at 47.9 uM measured after 48 hrs (reference value: 0%)
[23] = system: Candida albicans; assay: Antifungal activity against Candida albicans ATCC 90028 assessed as planktonic growth inhibition at 0.4 uM after 48 hrs by M27-A3 protocol based method relative to control; format: functional; conditions: ATCC 90028, 48 h, read-out: GI
[24] = system: Candida albicans; assay: Induction of reactive oxygen species generation in Candida albicans ATCC 90028 assessed as ROS level at 47.9 uM after 18 hrs by DCFDA probe based flow cytometry (reference value: 0.3%); format: functional
[25] = system: Candida albicans; assay: Antifungal activity against Candida albicans ATCC 90028 assessed as planktonic growth inhibition at 6 uM after 48 hrs by M27-A3 protocol based method relative to control; format: functional; conditions: ATCC 90028, 48 h, read-out: GI
[26] = Toxicity in Galleria mellonella larvae assessed as survival rate at 47.9 uM measured after 120 hrs (reference value: 100%)
[27] = Toxicity in Galleria mellonella larvae assessed as movement melanization at 47.9 uM measured after 18 hrs (reference value: 0%)
[28] = system: Vero; assay: Cytotoxicity against African green monkey Vero cells assessed as reduction in cell viability at 383.2 uM after 18 hrs by XTT assay relative to control; format: cell-based; conditions: chlorocebus sabaeus

c1ccc(-c2nnn(CCCN3CCCC3c3ccccc3)n2)cc1 (stereo not drawn)
MIC [1]: 11.9 µM (≈ 3.97 µg/mL)
inhibition of growth at 12 µM [2]: 99.4%
inhibition of growth at 47.9 µM [3]: 99.2%
Activity [4]: Active
MIC [5]: 23.9 µM
inhibition of growth at 0.09 µM [6]: 99.2%
survival at 48 h, 47.9 µM [7]: 100%
survival at 18 h, 47.9 µM [8]: 100%
Activity [9]: 67%
Activity [10]: 0%
inhibition of growth at 1.5 µM [11]: 99.3%
inhibition of growth at 23.9 µM [12]: 99.3%
inhibition of growth at 0.2 µM [13]: 99.3%
inhibition at 47.9 µM [14]: > 95%
log(activity) [15]: -0.4
Activity [16]: 93%
inhibition of growth at 3 µM [17]: 99.3%
pIC50 [18]: 4.62
inhibition of growth at 0.7 µM [19]: 99.2%
selectivity ratio [20]: 2
Activity [21]: 77%
Activity [22]: 0%
inhibition of growth at 0.4 µM [23]: 99.3%
Activity [24]: 12 - 16%
inhibition of growth at 6 µM [25]: 99.3%
survival at 120 h, 47.9 µM [26]: 97%
Activity [27]: 0%
Activity [28]: 100%
